Target: T1, human DGAT1 (Homo sapiens, UniProt O75907)
T1 construct: made in house; host or cells: Sf9 insect cells (baculovirus BAC-DGAT1, pFASTBAC1); microsome fraction
T1 sequence (O75907 1-488): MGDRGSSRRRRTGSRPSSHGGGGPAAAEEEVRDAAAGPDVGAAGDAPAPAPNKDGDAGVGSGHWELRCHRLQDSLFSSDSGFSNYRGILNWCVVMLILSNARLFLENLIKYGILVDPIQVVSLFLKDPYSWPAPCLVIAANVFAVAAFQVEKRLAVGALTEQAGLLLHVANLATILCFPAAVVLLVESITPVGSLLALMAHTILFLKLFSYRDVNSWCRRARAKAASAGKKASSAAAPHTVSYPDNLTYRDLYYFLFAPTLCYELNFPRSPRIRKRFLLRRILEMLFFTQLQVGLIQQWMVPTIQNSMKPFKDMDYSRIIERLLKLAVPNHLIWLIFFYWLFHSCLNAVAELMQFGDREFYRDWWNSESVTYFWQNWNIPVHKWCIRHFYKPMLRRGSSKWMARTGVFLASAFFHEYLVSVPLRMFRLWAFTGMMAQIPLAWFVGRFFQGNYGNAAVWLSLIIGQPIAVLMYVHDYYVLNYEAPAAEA
Test: DGAT inhibitory activity: [14C]-triglyceride synthesis with DGAT1 high expression Sf9 microsome
Format: biochemical
Conditions: 25 μM dioleoylglycerol, 25 μM [14C]-Oleoyl-CoA, 32° C., 20 min, read-out: hDGAT1 IC50
Method: The primer nucleotide sequence is shown below.
The PCR reaction was conducted using a KOD-plus kit (TOYOBO). The obtained PCR product was electrophoresed on agarose gel (1%), the DNA fragment amplified by PCR was recovered from the gel, and then digested with restriction enzymes EcoRI and SpeI. […] Furthermore, using BAC-TO-BAC Baculovirus Expression System (Invitrogen), recombinant baculovirus BAC-DGAT1 was prepared.
SF9 cells were sown at 1×10^6 cells/ml on Sf-900II SFM medium (1 L, Invitrogen) containing 10% fetal calf serum (Trace), 50 mg/L gentamicin (Invitrogen) and 0.1% Pluronic F-68 (Invitrogen), and shaking culture was performed using a 2 L volume Erlenmeyer flask at 27° C., 100 rpm. After culturing for 24 hrs, recombinant baculovirus BAC-DGAT1 (6.7 mL) was added, and the mixture was further cultured for 3 days. The culture medium was centrifuged at 2,000 rpm for 5 min to give virus-infected cells. The infected cells were washed with a phosphate buffered saline (Invitrogen), centrifuged under the same conditions, and the cells were preserved at −80° C. The cryopreserved cells were thawed in ice, suspended in buffer A (50 mM Tris buffer (30 mL, pH 7.4) containing 20% glycerol, 0.15 M NaCl) supplemented with Complete Protease Inhibitor (Boehringer), and ruptured 3 times with a Polytron homogenizer (Kinematica) at 20,000 rpm for 30 sec. The Sf9 microsome fractions were obtained by a conventional method and cryopreserved at −80° C. as a DGAT1 high expression Sf9 microsome.
As a DGAT1 reaction buffer, a solution having a composition of 100 mM Tris-HCl (pH 7.5), 250 mM sucrose, 150 mM MgCl2, 0.01% bovine serum albumin (BSA) was used. […] A mixture of 300 μL of chloroform:methanol (=1:2) was added to the reaction mixture to quench the reaction. The reaction mixture was sufficiently mixed and distilled water (200 μL) was added to partition the mixture between a chloroform layer (lower layer) and an aqueous layer (upper layer). […] The developed TLC plate was dried, contacted with a BAS imaging plate (manufactured by FUJIFIIM) and measured with BAS2500 (manufactured by FUJIFILM) 16 hr later to numerically show the amount of [^14C]-triglyceride (TG amount) produced during the reaction. The inhibitory rate was calculated by the following formula:
Inhibitory rate (%)=(1−(TG amount with addition of test compound−blank TG amount)/(control TG amount−blank TG amount))×100
The count of the triglyceride produced in the solution reacted without addition of the compound was used as a “control TG amount”, and the count of the triglyceride produced in the solution reacted without addition of the test compound and DGAT1 high expression Sf9 microsome was used as a “blank TG amount”.

Row | SMILES | IC50 [nM]
1 | O=C(NCCNC(=O)c1cn(-c2ccccc2)nc1C(F)(F)F)c1ccc(-n2cccn2)nc1 [Example A12, N-(2-(1-phenyl-3-(trifluoromethyl)-1H-pyrazole-4-carboxamido)ethyl)-6-(1H-pyrazol-1-yl) nicotinamide] | < 100
2 | CCCCc1ccc(C(=O)NCCNC(=O)c2cn(-c3ccccc3)nc2C(F)(F)F)nc1 [Example A24, 5-butyl-N-(2-(1-phenyl-3-(trifluoromethyl)-1H-pyrazole-4-carboxamido)ethyl)picolinamide] | 100 to 1000
3 | O=C(NCCNC(=O)c1cn(-c2ccccc2)c2ccccc12)c1ccc(OCC(F)(F)F)nc1 [Example A53, 1-phenyl-N-(2-(6-(2,2,2-trifluoroethoxy)nicotinamido)ethyl)-1H-indole-3-carboxamide] | < 100
4 | COc1nn(-c2ccccc2)cc1C(=O)NCCNC(=O)c1ccc(OCC(F)(F)F)nc1 [Example A55, N-(2-(3-methoxy-1-phenyl-1H-pyrazole-4-carboxamido)ethyl)-6-(2,2,2-trifluoroethoxy) nicotinamide] | 100 to 1000
5 | CCCc1cc(CCC)c(C(=O)NCCNC(=O)c2cn(-c3ccccc3)nc2C(F)(F)F)cn1 [Example A76, N-(2-(1-phenyl-3-(trifluoro-methyl)-1H-pyrazole-4-carboxamido)ethyl)-4,6-di-propylnicotinamide] | 100 to 1000
6 | O=C(NCCNC(=O)c1cn(C(=O)c2ccccc2)c2ccccc12)c1ccc(OCC(F)(F)F)nc1 [Example A82, 1-benzoyl-N-(2-(6-(2,2,2-trifluoroethoxy)nicotinamido)ethyl)-1H-indole-3-carboxamide] | < 100
7 | O=C(NCCNC(=O)c1cn(-c2ccccc2)nc1C(F)(F)F)c1ccc(S(=O)(=O)c2ccccc2)nc1 [Example A86, N-(2-(1-Phenyl-3-(trifluoromethyl)-1H-pyrazole-4-carboxamido)ethyl)-6-(phenylsulfonyl)nicotinamide] | 100 to 1000
8 | N#Cc1cc(C(=O)NCCNC(=O)c2cn(-c3ccccc3)nc2C(F)(F)F)cnc1OCC(F)(F)F [Example A87, 5-Cyano-N-(2-(1-phenyl-3-(trifluoromethyl)-1H-pyrazole-4-carboxamido)ethyl)-6-(2,2,2-trifluoroethoxy)nicotinamide] | 100 to 1000
9 | O=C(NCCNC(=O)c1cn(-c2ccccc2)nc1C(F)(F)F)c1ccc(-c2ncon2)nc1 [Example A96, 6-(1,2,4-Oxadiazol-3-yl)-N-(2-(1-phenyl-3-(trifluoromethyl)-1H-pyrazole-4-carboxamido)ethyl)nicotinamide] | 100 to 1000
10 | O=C(NCCNC(=O)c1cn(-c2ccccc2)nc1C(F)(F)F)c1ccc(-c2noc(C(F)(F)F)n2)nc1 [Example A98, N-(2-(1-Phenyl-3-(trifluoromethyl)-1H-pyrazole-4-carboxamido)ethyl)-6-(5-(trifluoromethyl)-1,2,4-oxadiazol-3-yl)nicotinamide] | < 100
11 | CC(C)c1nc(-c2ccc(C(=O)NCCNC(=O)c3cn(-c4ccccc4)nc3C(F)(F)F)cn2)no1 [Example A103, 6-(5-isopropyl-1,2,4-oxadiazol-3-yl)-N-(2-(1-phenyl-3-(trifluoromethyl)-1H-pyrazole-4-carboxamido)ethyl)nicotinamide] | < 100
12 | CCOc1ccc(C(=O)N2CCCC2CNC(=O)c2cn(-c3ccccc3)nc2C(F)(F)F)cc1 (stereo not shown) [Example C11, N-((1-(4-ethoxybenzoyl)pyrrolidin-2-yl)methyl)-1-phenyl-3-(trifluoromethyl)-1H-pyrazole-4-carboxamide] | 1000 to 10000
13 | CCOc1ccc(C(=O)NCCNC(=O)c2cc(-c3ccccc3)cc(-c3ccccc3)n2)cc1 [Example D1, N-(2-(4-Ethoxybenzamido)ethyl)-4,6-diphenylpicolinamide] | 1000 to 10000

The next lines start with the values.

Row | IC50 [nM] | SMILES
14 | 100 to 1000 | CCOc1ccc(C(=O)NCCNC(=O)c2cn(-c3cccc(OCC)n3)nc2C(F)(F)F)cc1 [B6, N-(2-(4-ethoxybenzamido)ethyl)-1-(6-ethoxypyridin-2-yl)-3-(trifluorometh-yl)-1H-pyrazole-4-carboxamide]
15 | 100 to 1000 | CCOc1ccc(C(=O)NC[C@@H](NC(=O)c2cn(-c3ccccc3)nc2C(F)(F)F)C(=O)OC)cc1 [C15]
16 | 1000 to 10000 | CN(C)CCNc1ccc(C(=O)NCCNC(=O)c2cn(-c3ccccc3)nc2C(F)(F)F)cn1 [Example A11, 6-(2-(dimethyl-amino)ethylamino)-N-(2-(1-phenyl-3-(trifluoromethyl)-1H-pyrazole-4-carboxamido)ethyl) nicotinamide]
17 | 100 to 1000 | CN(C)c1ccc(C(=O)NCCNC(=O)c2cn(-c3ccccc3)nc2C(F)(F)F)cn1 [Example A15, 6-(dimethylamino)-N-(2-(1-phenyl-3-(trifluoromethyl)-1H-pyrazole-4-carboxamido)ethyl)nicotinamide]
18 | < 100 | O=C(NCCNC(=O)c1cn(-c2ccccc2)nc1C(F)(F)F)c1ccc(OCCC(F)(F)F)nc1 [Example A42, N-(2-(1-phenyl-3-(trifluoromethyl)-1H-pyrazole-4-carboxamido)ethyl)-6-(3,3,3-trifluoropropoxy)nicotinamide]
19 | 1000 to 10000 | CN(C)c1nn(-c2ccccc2)cc1C(=O)NCCNC(=O)c1ccc(OCC(F)(F)F)nc1 [Example A58, N-(2-(3-(dimethylamino)-1-phenyl-1H-pyrazole-4-carboxamido)ethyl)-6-(2,2,2-trifluoroethoxy) nicotinamide]
20 | 1000 to 10000 | CC(=O)Nc1ccc(C(=O)NCCNC(=O)c2cn(-c3ccccc3)nc2C(F)(F)F)cn1 [Example A99, 6-Acetamido-N-(2-(1-phenyl-3-(trifluoromethyl)-1H-pyrazole-4-carboxamido)ethyl)nicotinamide]
21 | < 100 | CCOc1ccc(C(=O)NCCNC(=O)c2cn(-c3ccc4[nH]ccc4c3)nc2C(F)(F)F)cc1 [Example B1, N-(2-(4-Ethoxybenzamido)ethyl)-1-(1H-indol-5-yl)-3-(trifluoromethyl)-1H-pyrazole-4-carboxamide]
22 | 1000 to 10000 | CCOc1ccc(C(=O)NCCNC(=O)c2nn(-c3ccccc3)nc2C)cc1 [Example D6, N-(2-(4-ethoxybenzamido)ethyl)-5-methyl-2-phenyl-1H-1,2,3-triazole-4-carboxamide]

From patent US20090286791A1, “Amide Compounds” (TAKEDA PHARMACEUTICAL COMPANY LIMITED, priority 2001, published 2009)
